In patent publication EP0109623A1, “Phenyl-propanol amines, their preparation and use” (BASF Aktiengesellschaft, priority 1982, dated 1984):
Counter-ions that a name gives are not always drawn. Like-named read-outs stand apart in the source and are kept apart here.

Legend:
[1] = target: Noradrenalin-Aufnahme (Rattus norvegicus, UniProt Q9WTR4); assay: Inhibition of 3H-noradrenaline uptake in rat brain synaptosomes (hippocampus); type: biochemical, Ratte; details: for IC50: rat hippocampus synaptosomes, 3H-Noradrenalin ca. 10 nM, 37°C, read-out: Hemmung der Neurotransmitter-Aufnahme in Synaptosomen Noradrenalin IC50; for absolute Wirkstärke bei der Hemmung der Noradrenalin-Aufnahme: potency relative to Imipramin
From the text: (§1) Als Wirkungsmechanismus einer Gruppe therapeutisch vielfach genutzter Antidepressiva (z.B. tricyclische Antidepressiva) ist eine Hemmung der neuronalen Aufnahme von Transmittersubstanzen (Noradrenalin und/oder Serotonin) anzusehen. Diese Eigenschaft wird in biologischen Testmodellen zur Charakterisierung von potentiellen Antidepressiva verwendet. Es wurde folgende Methodik eingesetzt: • Hemmung der Neurotransmitter-Aufnahme in Rattenhirn-Synaptosomen
(§2) Hippocampus und Cortex aus Rattenhirn wurden präpariert und in 0,32 M Sucrose-Lösung homogenisiert. Durch differentielle Zentrifugation wurden Synaptosomen erhalten, die in Pufferlösung suspendiert wurden. Die Synaptosomen sind in der Lage, aus dem umgebenden Medium zugefügte Neurotransmittersubstanzen (z.B. Noradrenalin oder Serotonin) aktiv aufzunehmen. Dieser Vorgang ist durch Aufnahme-Hemmer konzentrationsabhängig antagonisierbar. Die Synaptosomen wurden mit den Testsubstanzen in verschiedenen Konzentrationen versetzt und anschließend mit ^3H-Noradrenalin (Hippocampus) bzw. ^3H-Serotonin (Cortex) bei 37°C inkubiert. Die Substratkonzentration betrug ca. 10 nM. Nach Stoppen der Aufnahme durch Verdünnen mit eisgekühlter Pufferlösung wurden die Synaptosomen i abzentrifugiert und die ^3H-Aktivität im Sediment gemessen. Der Blindwert wird durch Inkubation bei 0°C ermittelt.
(§3) Aus den bei verschiedenen Inhibitor-Konzentrationen gegen Kontrolle ermittelten Hemmwerten wurde durch lineare Regression nach logit-log-Transformation die mittlere Hemmkonzentration (ICso) berechnet.

[2] = target: T1, Serotonin-Aufnahme (Rattus norvegicus, UniProt P31652); assay: Inhibition of 3H-serotonin uptake in rat brain synaptosomes (cortex); type: biochemical, Ratte
T1 construct: Durch differentielle Zentrifugation wurden Synaptosomen erhalten; from tissue; host or cells: rat brain cortex synaptosomes
From the text: as §1, §2, §3

[3] = rat cortex synaptosomes, 3H-Serotonin ca. 10 nM, 37°C, read-out: Hemmung der Neurotransmitter-Aufnahme in Synaptosomen Serotonin IC50

Chain of Noradrenalin-Aufnahme (Q9WTR4 1-597): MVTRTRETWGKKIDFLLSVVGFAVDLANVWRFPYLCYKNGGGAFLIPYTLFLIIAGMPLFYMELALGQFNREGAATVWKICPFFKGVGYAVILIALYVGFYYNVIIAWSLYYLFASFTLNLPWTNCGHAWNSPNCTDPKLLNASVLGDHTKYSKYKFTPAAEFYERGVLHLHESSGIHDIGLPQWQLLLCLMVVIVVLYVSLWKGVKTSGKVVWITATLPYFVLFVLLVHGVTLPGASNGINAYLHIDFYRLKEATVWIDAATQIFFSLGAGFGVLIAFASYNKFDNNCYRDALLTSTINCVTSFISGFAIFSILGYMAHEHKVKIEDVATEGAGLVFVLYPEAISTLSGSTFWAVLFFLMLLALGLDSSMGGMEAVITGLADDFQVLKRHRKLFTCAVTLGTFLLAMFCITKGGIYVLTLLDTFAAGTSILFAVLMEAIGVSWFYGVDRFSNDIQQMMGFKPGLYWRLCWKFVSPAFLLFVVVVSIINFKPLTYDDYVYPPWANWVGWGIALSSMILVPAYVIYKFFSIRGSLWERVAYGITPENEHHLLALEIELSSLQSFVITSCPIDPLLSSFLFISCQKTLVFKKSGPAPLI
T1 sequence (P31652 whole entry): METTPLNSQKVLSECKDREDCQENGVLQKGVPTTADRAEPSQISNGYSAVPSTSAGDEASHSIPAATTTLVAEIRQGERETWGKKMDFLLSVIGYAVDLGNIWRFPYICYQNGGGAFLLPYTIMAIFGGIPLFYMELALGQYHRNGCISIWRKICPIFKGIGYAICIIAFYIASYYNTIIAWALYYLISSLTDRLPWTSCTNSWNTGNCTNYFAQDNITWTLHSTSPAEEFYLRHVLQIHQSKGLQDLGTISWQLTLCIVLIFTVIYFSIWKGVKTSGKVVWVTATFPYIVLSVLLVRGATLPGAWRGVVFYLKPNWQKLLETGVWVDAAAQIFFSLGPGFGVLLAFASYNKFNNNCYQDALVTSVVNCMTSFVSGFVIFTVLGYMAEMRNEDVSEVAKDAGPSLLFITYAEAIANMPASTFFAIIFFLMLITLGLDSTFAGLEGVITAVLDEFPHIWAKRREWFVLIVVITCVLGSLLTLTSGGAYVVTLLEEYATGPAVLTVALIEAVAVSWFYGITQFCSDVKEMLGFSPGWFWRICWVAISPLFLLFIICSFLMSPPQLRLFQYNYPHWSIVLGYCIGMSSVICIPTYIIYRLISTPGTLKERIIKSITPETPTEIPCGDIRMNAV

CN(C)CC(COc1ccccc1)C(O)c1ccccc1 (stereo not drawn) [Beispiel 1, 1-Dimethylamino-2-phenoxymethyl-3-phenyl-propanol-(3)]
IC50 [1]: 5.2 nM | IC50 [2, 3]: 190 nM

CN(C)CC(COc1ccc(Cl)cc1)C(O)c1ccccc1 (stereo not drawn) [Beispiel 1.2, 2-(4-Chlorphenoxymethyl)-1-dimethylamino-3-phenyl-propanol-(3)]
IC50 [1]: 180 nM | IC50 [2, 3]: 20 nM

CN(C)CC(COc1ccccc1)C(O)c1ccc(F)cc1 (stereo not drawn) [Beispiel 1.3, 1-Dimethylamino-3-(4-fluorphenyl)-2-phenoxymethyl-propanol-(3) Hydrochlorid]
IC50 [2, 3]: 490 nM

CN(C)CC(COc1ccc(Br)cc1)C(O)c1ccccc1 (stereo not drawn) [Beispiel 1.4, 2-(4-Bromphenoxymethyl)-1-dimethylamino-3-phenylpropanol-(3) Hydrochlorid]
IC50 [1]: 17 nM | IC50 [2, 3]: 73 nM

CN(C)CC(CSc1ccccc1)C(O)c1ccccc1 (stereo not drawn) [Beispiel 1.6, 1-Dimethylamino-3-phenyl-2-thiophenoxymethyl-propanol-(3)]
absolute Wirkstärke bei der Hemmung der Noradrenalin-Aufnahme [1]: 8 -fach | IC50 [1]: 1.7 nM | IC50 [2, 3]: 65 nM

CCC(O)(c1ccccc1)C(COc1ccccc1)CN(C)C (stereo not drawn) [Beispiel 2, 1-Dimethylamino-3-phenyl-2-phenoxymethyl-pentanol-(3) Hydrochlorid]
IC50 [1]: 11 nM | IC50 [2, 3]: 25 nM

CN(C)CC(COc1ccccc1)C(O)(c1ccccc1)c1ccccc1 (stereo not drawn) [Beispiel 2.2, 1-Dimethylamino-3,3-diphenyl-2-phenoxymethyl-propanol-(3)]
IC50 [1]: 94 nM | IC50 [2, 3]: 200 nM

CN(C)CC(COc1ccc(Cl)cc1)C(O)(c1ccccc1)c1ccccc1 (stereo not drawn) [Beispiel 2.3, 2-(4-Chlorphenoxymethyl)1-dimethylamino-3,3-diphenyl-propanol-(3)]
IC50 [1]: 94 nM | IC50 [2, 3]: 26 nM

CN(C)CC(COc1ccccc1)C(C)(O)c1ccccc1 (stereo not drawn) [Beispiel 2.4, 1-Dimethylamino-2-phenoxymethyl-3-phenyl-butanol-(3) Hydrochlorid]
IC50 [1]: 36 nM | IC50 [2, 3]: 66 nM

CCCC(O)(c1ccccc1)C(COc1ccccc1)CN(C)C (stereo not drawn) [Beispiel 2.5, 1-Dimethylamino-2-phenoxymethyl-3-phenyl-hexanol-(3) Hydrochlorid]
IC50 [1]: 13 nM | IC50 [2, 3]: 37 nM

CCCC(O)(c1ccccc1)C(COc1ccc(Cl)cc1)CN(C)C (stereo not drawn) [Beispiel 2.6, 2-(4-Chlorphenoxymethyl)-1-dimethylamino-3-phenyl-hexanol-(3) Hydrochlorid]
IC50 [1]: 200 nM | IC50 [2, 3]: 3.6 nM

CCC(O)(c1ccccc1)C(COc1ccc(Cl)cc1)CN(C)C (stereo not drawn) [Beispiel 2.7, 2-(4-Chlorphenoxymethyl)-1-dimethylamino-3-phenyl-pentanol-(3) Hydrochlorid]
IC50 [1]: 150 nM | IC50 [2, 3]: 3.1 nM

CN(C)CC(COc1ccc(Cl)cc1)C(C)(O)c1ccccc1 (stereo not drawn) [Beispiel 2.8, 2-(4-Chlorphenoxymethyl)-1-dimethylamino-3-phenyl-butanol-(3) Hydrochlorid]
IC50 [1]: 160 nM | IC50 [2, 3]: 3.8 nM

CCC(O)(c1ccccc1)C(COc1ccc(Cl)cc1)CN(C)C (stereo not drawn) [Beispiel 2.9, 2-(4-Chlorphenoxymethyl)-1-dimethylamino-3-phenyl-pentanol-(3) Hydrochlorid]
IC50 [1]: 68 nM | IC50 [2, 3]: 100 nM

CCCCCCCCC(O)(c1ccccc1)C(COc1ccccc1)CN(C)C (stereo not drawn) [Beispiel 2.10, 1-Dimethylamino-2-phenoxymethyl-3-phenyl-undecanol-(3)]
IC50 [1]: 38 nM | IC50 [2, 3]: 49 nM

CCCCCCCCCCCCC(O)(c1ccccc1)C(COc1ccccc1)CN(C)C (stereo not drawn) [Beispiel 2.11, 1-Dimethylamino-2-phenoxymethyl-3-phenyl-pentadecanol-(3)]
IC50 [1]: 500 nM | IC50 [2, 3]: 300 nM

C=CC(O)(c1ccccc1)C(COc1ccccc1)CN(C)C (stereo not drawn) [Beispiel 2.12, l-Dimethylamino-2-phenoxymethyl-3-phenyl-pent-4-enol-(3) Hydrochlorid]
IC50 [1]: 100 nM | IC50 [2, 3]: 69 nM

CC(=O)OC(c1ccccc1)C(COc1ccccc1)CN(C)C.Cl (stereo not drawn) [Beispiel 5, 3-Acetoxy-1-dimethylamino-2-phenoxymethyl-3-phenylpropan Hydrochlorid]
absolute Wirkstärke bei der Hemmung der Noradrenalin-Aufnahme [1]: 8 -fach | IC50 [1]: 1.7 nM | IC50 [2]: 400 nM

CCOC(=O)OC(c1ccccc1)C(COc1ccccc1)CN(C)C (stereo not drawn) [Beispiel 5.3, 1-Dimethylamino-3-ethoxycarbonyloxy-2-phenoxymethyl-3-phenyl-propan Hydrochlorid]
IC50 [1]: 20 nM | IC50 [2]: 300 nM

C=CCOC(c1ccccc1)C(COc1ccccc1)CN(C)C (stereo not drawn) [Beispiel 6, 3-Allyloxy-1-dimethylamino--2-phenoxymethyl-3-phenyl-propan]
IC50 [1]: 17 nM | IC50 [2]: 56 nM

COc1ccc(OCC2CN(C)CCC2c2ccccc2)cc1 (stereo not drawn) [Femoxetin, reference compound]
IC50 [1]: 330 nM
